Values of other authors as cited in patent US7405313B2, “Method for the synthesis of basic chromium carboxylates” (The Board of Trustees of the University of Alabama, priority 2006, dated 2008).

How the values were obtained:
[1] = system: rats on regular diets; conditions: for effect on body mass, percentage lean or fat content, tissue size, or blood variables (fasting glucose, insulin, cholesterol, etc.): rats on regular diets
[2] = system: healthy and model type 2 diabetic rats
[3] = system: colorectal cancer; conditions: rat
[4] = compared to other chromium-containing nutritional supplements
[5] = healthy and model type 2 diabetic rats

| Compound | effect on body mass, percentage lean or fat content, tissue size, or blood variables (fasting glucose, insulin, cholesterol, etc.) [1] | acute toxic effects ([1]; rats, amounts up to 1500 μg/kg diet for up to 24 weeks) | glycated hemoglobin ([2]; diabetes models) | blood plasma cholesterol and triglycerides levels [2, 5] | insulin sensitivity [2, 5] | onset of colorectal cancer [3] | absorption [4] | dissolution in water |
| --- | --- | --- | --- | --- | --- | --- | --- | --- |
| chromium(III) tris(picolinate) [Cr(pic)3] | no effect | no acute toxic effects | – | – | – | – | – | – |
| CCC(=O)[O-].CCC(=O)[O-].CCC(=O)[O-].CCC(=O)[O-].CCC(=O)[O-].CCC(=O)[O-].O.O.O.[Cr+3].[Cr+3].[Cr+3].[O-2] [Complex 1, [Cr3O(O2CCH2CH3)6(H2O)3]^+] | – | – | reduce glycated hemoglobin | improve blood plasma cholesterol and triglycerides levels | increase insulin sensitivity | reduce the onset of colorectal cancer | absorbed very rapidly and very efficiently | dissolves in water very rapidly |
| [Cl][Cr]([Cl])[Cl] [chromium chloride] | no effect | – | – | – | – | – | – | – |
